Data on 16 molecules can be found in PubChem BioAssay (NCI).

Test systems include COLO 205 colon; DU-145 prostate; HS 578T breast; KM12 colon; LOX IMVI melanoma; MDA-MB-231 breast; SN12C renal; SNB-75 CNS.
Experiment in all cases: NCI tumour cell line growth inhibition, 48 h

SMILES strings stand for the structures.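 Growth conditions: 96-well plates. Treatment: test compound, 48 hours, 5 concentrations. Analysis: linear interpolation between bracketing concentrations; unreached endpoints set to highest concentration. TGI marks complete inhibition of growth.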

On to `O=CC1C(=O)Nc2nc3ccccc3n2C1c1ccccc1` (stereo not drawn), for which the TGI in the test with COLO 205 colon is 26.2 µM; in the test on DU-145 prostate, 25.3 µM; with HS 578T breast, over 100 µM; in the test on KM12 colon, 29.9 µM; in the test with LOX IMVI melanoma, 23.1 µM; in the test with MDA-MB-231 breast, 44.3 µM. For the same molecule, the values for the TGI in the test with SN12C renal and in the test with SNB-75 CNS were 28.2 µM and 22.3 µM, respectively.

For `CN1CCN2CCN(C)CCN(CC1)CC2`, the TGI in the test on COLO 205 colon, in the test with DU-145 prostate, in the test on HS 578T breast, with KM12 colon, with LOX IMVI melanoma and in the test on MDA-MB-231 breast was over 100 µM each time. In addition, the TGI with SN12C renal and in the test with SNB-75 CNS was over 100 µM throughout.

For the molecule `COc1cc2oc(=O)cc(C)c2c(OC)c1OC`, the TGI in the test on COLO 205 colon, in the test on DU-145 prostate, in the test with HS 578T breast, in the test with KM12 colon, in the test on LOX IMVI melanoma and with MDA-MB-231 breast was over 100 µM in each case. Further, the TGI in the test on SN12C renal and in the test on SNB-75 CNS was over 100 µM throughout.

Consider `O=C(CN1CCOCC1)c1ccc2c(c1)oc(=O)n2CCN1CCCCC1`, for which the TGI in the test on COLO 205 colon, with DU-145 prostate, in the test with HS 578T breast, in the test on KM12 colon, in the test with LOX IMVI melanoma and in the test with MDA-MB-231 breast was over 100 µM each time. Further, the TGI in the test on SN12C renal was over 100 µM; in the test with SNB-75 CNS it was 56.2 µM.

In the case of `CCOC1=NC(C(F)(F)F)(C(F)(F)F)N=C(/N=C(/N)N(C)C(C(C)C)P(=O)(OC(C)C)OC(C)C)O1` (stereo not drawn), the TGI in the test with COLO 205 colon, with DU-145 prostate, with HS 578T breast, with KM12 colon, in the test on LOX IMVI melanoma and in the test on MDA-MB-231 breast was over 100 µM in each case. The TGI in the test with SN12C renal and in the test with SNB-75 CNS was over 100 µM throughout.

With `Cc1nc2ccccc2n1Cc1ccc(NC(=S)NC2CCCCC2)cc1`, the TGI with COLO 205 colon, in the test on DU-145 prostate, with HS 578T breast, in the test with KM12 colon, in the test with LOX IMVI melanoma and in the test on MDA-MB-231 breast was over 100 µM each time. The TGI with SN12C renal was over 100 µM; with SNB-75 CNS, over 84.7 µM.

As to `CC1(C)C/C=C\CCC(O)C(O)CCC(C)(C)C1=O` (stereo not drawn), the TGI with COLO 205 colon, with DU-145 prostate, in the test with HS 578T breast, with KM12 colon, with LOX IMVI melanoma and in the test on MDA-MB-231 breast was over 100 µM each time. In addition, the TGI with SN12C renal and with SNB-75 CNS was over 100 µM throughout.

Regarding `COc1ccc(OC/C(N=Cc2cccnc2)=N/NC(=O)c2ccncc2)cc1`, the TGI with COLO 205 colon, in the test with DU-145 prostate, in the test on HS 578T breast, in the test on KM12 colon, with LOX IMVI melanoma and in the test with MDA-MB-231 breast was over 100 µM in each case. The TGI in the test with SN12C renal was over 100 µM; with SNB-75 CNS it was 85.2 µM.

Consider `O=C1N(c2ccccc2)N=C2c3ccncc3C3=NN(c4ccccc4)C(=O)C123` (stereo not drawn), for which the TGI with COLO 205 colon is 6.12 µM; with DU-145 prostate it was over 100 µM; with HS 578T breast, over 100 µM; in the test on KM12 colon it was over 100 µM; with LOX IMVI melanoma it was over 100 µM; with MDA-MB-231 breast, over 100 µM. For the same molecule, the TGI with SN12C renal and with SNB-75 CNS was over 100 µM throughout.

`ClC1(Cl)C2CCOC21n1cnc2ccccc21` (stereo not drawn): the TGI in the test on COLO 205 colon, in the test on DU-145 prostate, in the test on HS 578T breast, in the test on KM12 colon, in the test on LOX IMVI melanoma and in the test on MDA-MB-231 breast was over 100 µM each time. Also, the TGI with SN12C renal and in the test with SNB-75 CNS was over 100 µM each time.

For the molecule `CCN(CC)C(=O)CCNC(C)Cc1c[nH]c2ccccc12` (stereo not drawn), the TGI in the test on COLO 205 colon, in the test on DU-145 prostate, in the test with HS 578T breast, in the test on KM12 colon, in the test on LOX IMVI melanoma and in the test on MDA-MB-231 breast was over 100 µM throughout. In addition, the TGI in the test on SN12C renal and with SNB-75 CNS was over 100 µM each time.

For `CN1CCN(C(=S)N(C(=O)c2ccc(Cl)cc2)C2CCCCC2)CC1`, the TGI in the test on COLO 205 colon, with DU-145 prostate, with HS 578T breast, with KM12 colon, in the test with LOX IMVI melanoma and in the test on MDA-MB-231 breast was over 100 µM throughout. Further, the TGI with SN12C renal is over 100 µM; with SNB-75 CNS, 85.2 µM.

In the case of `CCOC(=O)C1=CN(Cc2ccccc2)C2ON=C(c3ccc(Cl)cc3)C2C1` (stereo not drawn), the TGI was over 64.1 µM in the test on COLO 205 colon; over 70 µM with DU-145 prostate; 21.7 µM with HS 578T breast; over 66.5 µM in the test on KM12 colon; over 74.2 µM with LOX IMVI melanoma; over 61.6 µM with MDA-MB-231 breast. The values for the TGI in the test with SN12C renal and with SNB-75 CNS were over 65.4 µM and over 72.5 µM, respectively.

Consider `N#C[C@H](c1nc2ccccc2[nH]1)c1nc2ccccc2nc1Cl`, for which the TGI is 40 µM in the test with COLO 205 colon; 4.09 µM in the test with DU-145 prostate; over 100 µM with HS 578T breast; 17.1 µM with KM12 colon; 29.3 µM with LOX IMVI melanoma; 35.3 µM in the test with MDA-MB-231 breast. Besides, the TGI came to 30.9 µM with SN12C renal and 41.1 µM in the test with SNB-75 CNS.

Consider `CNC(=S)c1nnsc1N`, for which the TGI in the test on COLO 205 colon, with DU-145 prostate, with HS 578T breast, in the test on KM12 colon, with LOX IMVI melanoma and in the test on MDA-MB-231 breast was over 100 µM throughout. Besides, the TGI with SN12C renal and in the test with SNB-75 CNS was over 100 µM each time.

With `[B]C(=O)NC(CC(C)C)C(=O)NC1c2ccsc2C(=O)C1O` (stereo not drawn) (tested in a mixture with another compound), the TGI in the test with COLO 205 colon, in the test with DU-145 prostate, in the test on HS 578T breast, in the test on KM12 colon, in the test with LOX IMVI melanoma and in the test on MDA-MB-231 breast was over 100 µM throughout. The TGI in the test with SN12C renal and with SNB-75 CNS was over 100 µM each time.
